Structures can show the parent of a compound that is named as a salt.
Columns and labels:
[1] = tested on: late components of human complement (C3-C9); assay: Test Code 035 (C3-C9 inhibitor), lysis of EAC 142; assay type: biochemical; conditions: serial twofold dilution assay; higher well number indicates higher activity
Experimental: (§1) An active inhibitor protects C2 from C1 and C4; (ii) Test Code 035 (C3-C9 inhibitor)--This test determines the ability of the late components of human complement (C3-C9) to lyse EAC 142 in the presence of appropriate dilutions of the test compound. An active inhibitor protects EAC 142 from lysis by human C3-C9; (iii) Cap 50 Test--Here, appropriate amounts of the test compound are added to a pool of guinea pig or human serum in vitro, after which the undiluted serum capillary tube assay of U.S. Pat. No. 3,876,376 is run. The concentration of compound inhibiting 50% is reported; and (iv) Guinea Pig Intraperitoneal Test (GPIP)--Guinea pigs weighing about 300 g are dosed intraperitoneally (i.p.) with 200 mg/kg of the test compound dissolved in saline and adjusted to pH 7-8. Approximately 0.4 ml blood samples, taken by orbital sinus puncture 2 hours and 6 hours after injections, are collected directly into centrifuge tubes; 5 ml blood samples, taken by decapitation 24 hours after injection, are collected directly into beakers. The samples are allowed to clot, centrifuged, and the resultant sera are assayed for complement activity using the capillary complement assay. Percent inhibition is calculated by comparison with simultaneous controls. The results of the GPIP appear in Table I together with results of Test Code 026, 035 and Cap 50.

activated human C1 = activated human C1 (Homo sapiens, UniProt P09871); assay: Test Code 026 (C1 inhibitor); assay type: biochemical; conditions: serial twofold dilution assay; higher well number indicates higher activity
Experimental: as §1

human serum complement = conditions: both in vitro and in vivo; cited from earlier work

O=S(=O)(O)OC[C@H]1O[C@@H](Sc2cccc(S[C@@H]3O[C@H](COS(=O)(=O)O)[C@@H](O[C@H]4O[C@H](COS(=O)(=O)O)[C@@H](OS(=O)(=O)O)[C@H](OS(=O)(=O)O)[C@H]4OS(=O)(=O)O)[C@H](OS(=O)(=O)O)[C@H]3OS(=O)(=O)O)c2)[C@H](OS(=O)(=O)O)[C@@H](OS(=O)(=O)O)[C@@H]1O[C@H]1O[C@H](COS(=O)(=O)O)[C@@H](OS(=O)(=O)O)[C@H](OS(=O)(=O)O)[C@H]1OS(=O)(=O)O [1,3-Bis-[4-O-α-D-glucopyranosyl-β-D-glucopyranosyl-1-thio]-phenylene, tetradecakis(H-sulfate),tetradecasodium salt]
C-Late 035 Wells [1]: 0.9 Wells
C1 026 Wells (activated human C1): 12 Wells

pentosanpolysulfoester
anticomplementary activity, judged by reduction in total hemolytic complement activity (human serum complement): anticomplementary activity

O=S(=O)(O)OC[C@H]1O[C@@H](Sc2ccc(-c3ccc(S[C@@H]4O[C@H](COS(=O)(=O)O)[C@@H](O[C@H]5O[C@H](COS(=O)(=O)O)[C@@H](OS(=O)(=O)O)[C@H](OS(=O)(=O)O)[C@H]5OS(=O)(=O)O)[C@H](OS(=O)(=O)O)[C@H]4OS(=O)(=O)O)cc3)cc2)[C@H](OS(=O)(=O)O)[C@@H](OS(=O)(=O)O)[C@@H]1O[C@H]1O[C@H](COS(=O)(=O)O)[C@@H](OS(=O)(=O)O)[C@H](OS(=O)(=O)O)[C@H]1OS(=O)(=O)O [4,4'-Bis-[4-O-α-D-glucopyranosyl-β-D-glucopyranosyl-1-thio]-1,1'-biphenylene, tetradecakis(H-sulfate), tetradecasodium salt]
C-Late 035 Wells [1]: 2 Wells
C1 026 Wells (activated human C1): 13 Wells

— patent US4407796A, “Modulators of the complement system” (American Cyanamid Company, priority 1981, dated 1983)
